This passage reports IC50 and Ki results from ChEMBL document CHEMBL4138187, “Novel 2-(2-arylmethylthio-4-chloro-5-methylbenzenesulfonyl)-1-(1,3,5-triazin-2-ylamino)guanidine derivatives: Inhibition of human carbonic anhydrase cytosolic isozymes I and II and the transmembrane tumor-associated isozymes IX and XII, anticancer activity, and molecular modeling studies” (Eur J Med Chem, 2018).

In general, IC50 refers to the concentration that inhibits the measured activity by half. A high value points to weaker potency. Broadly, the Ki is a dissociation constant, usually derived from enzyme kinetics or from competition with a known ligand. A higher Ki goes with a looser hold on the target.

One test has as its system HeLa. In words: Cytotoxicity against human HeLa cells after 72 hrs by MTT assay. It counts as functional, cell-based.
The next test has as its system MCF7. The experiment in a line: Cytotoxicity against human MCF7 cells after 72 hrs by MTT assay. Type of test: functional, cell-based. As to conditions: MCF7, 72 h. On the technique in general: Tetrazolium assays rely on reduction of a dye to a coloured formazan, in cell work by metabolically active cells.
For another test, the system named is HCT-116. In words: Cytotoxicity against human HCT116 cells after 72 hrs by MTT assay. It counts as functional, cell-based. The note with it: HCT-116, 72 h.
A further test concerns the target Carbonic anhydrase 1 (Homo sapiens, UniProt P00915).
Another test deals with Carbonic anhydrase 2 (Homo sapiens, UniProt P00918).
In a further test the target is Carbonic anhydrase 9 (Homo sapiens, UniProt Q16790).
The subject of another test is HaCaT. In words: Cytotoxicity against human HaCaT cells after 72 hrs by MTT assay. Type of test: cell-based.

Each structure is given as a SMILES string. Where only a bound is given, the exact number is not on record here.

Sequence of Carbonic anhydrase 1 (P00915 whole entry): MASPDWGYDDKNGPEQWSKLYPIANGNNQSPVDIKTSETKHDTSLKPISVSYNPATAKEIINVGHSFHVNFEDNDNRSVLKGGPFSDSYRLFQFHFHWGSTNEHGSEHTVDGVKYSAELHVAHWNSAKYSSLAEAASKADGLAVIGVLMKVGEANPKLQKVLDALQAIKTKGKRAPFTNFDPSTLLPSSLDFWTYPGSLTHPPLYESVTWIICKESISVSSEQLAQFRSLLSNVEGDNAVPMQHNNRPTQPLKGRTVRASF
Description for Carbonic anhydrase 1: Inhibition of human carbonic anhydrase 1 by stopped-flow CO2 hydration assay
Description for Carbonic anhydrase 2: Inhibition of human carbonic anhydrase 2 by stopped-flow CO2 hydration assay
Description for Carbonic anhydrase 9: Inhibition of human carbonic anhydrase 9 by stopped-flow CO2 hydration assay

In the case of `N/C(=N\S(=O)(=O)c1ccccc1SCc1cccc(C(F)(F)F)c1)NNc1nc(Cl)nc(Nc2ccc(S(N)(=O)=O)cc2)n1`, the 50% inhibitory concentration (IC50) in the test with HeLa, with MCF7 and with HCT-116 was > 100000 nM throughout. Also, the Ki worked out at 148 nM on Carbonic anhydrase 1, 7.4 nM on Carbonic anhydrase 2 and 37.1 nM at Carbonic anhydrase 9.

As for `N/C(=N\S(=O)(=O)c1ccccc1SCc1ccc(C(F)(F)F)cc1)NNc1nc(Cl)nc(Nc2cccc(S(N)(=O)=O)c2)n1`, the IC50 with HeLa, in the test with MCF7 and with HCT-116 was > 100000 nM throughout. The Ki on Carbonic anhydrase 1 worked out at 536 nM; on Carbonic anhydrase 2, 326 nM; at Carbonic anhydrase 9, 421 nM.

With `N/C(=N\S(=O)(=O)c1ccccc1SCc1cccc(C(F)(F)F)c1)NNc1nc(Cl)nc(NCc2ccc(S(N)(=O)=O)cc2)n1`, the IC50 in the test on HeLa, in the test with MCF7 and in the test with HCT-116 was > 100000 nM throughout. In addition, the Ki on Carbonic anhydrase 1 was found to be 219 nM; on Carbonic anhydrase 2 it was 5.4 nM; on Carbonic anhydrase 9 it was 43.6 nM.

Turning to `N/C(=N\S(=O)(=O)c1ccccc1SCc1cccc2ccccc12)NNc1nc(Cl)nc(NCc2ccc(S(N)(=O)=O)cc2)n1`, the 50% inhibitory concentration (IC50) with HeLa, in the test with MCF7 and with HCT-116 was > 100000 nM in each case. In addition, the inhibition constant (Ki) on Carbonic anhydrase 1 came to 2140 nM; at Carbonic anhydrase 2, 187 nM; at Carbonic anhydrase 9, 383 nM.

Take `N/C(=N\S(=O)(=O)c1ccccc1SCc1cccc2ccccc12)NNc1nc(Cl)nc(Nc2ccc(S(N)(=O)=O)cc2)n1`: the values for the 50% inhibitory concentration (IC50) with HaCaT and in the test on HeLa were 61000 nM and 17000 nM, respectively. For the same compound, the inhibitory constant (Ki) on Carbonic anhydrase 1 worked out at 733 nM; on Carbonic anhydrase 2 it was 161 nM; on Carbonic anhydrase 9, 41.1 nM.

For the compound `N/C(=N\S(=O)(=O)c1ccccc1SCc1ccccc1)NNc1nc(Cl)nc(Nc2ccc(S(N)(=O)=O)cc2)n1`, the IC50 in the test with HeLa, in the test with MCF7 and with HCT-116 was > 100000 nM throughout. The Ki on Carbonic anhydrase 1 was 66.6 nM; at Carbonic anhydrase 2, 83.7 nM; on Carbonic anhydrase 9 it was 39.4 nM.

As to `N/C(=N\S(=O)(=O)c1ccccc1SCc1cccc(C(F)(F)F)c1)NNc1nc(Cl)nc(Nc2cccc(S(N)(=O)=O)c2)n1`, the IC50 in the test with HeLa, with MCF7 and with HCT-116 was > 100000 nM throughout. The Ki at Carbonic anhydrase 1 was 337 nM; at Carbonic anhydrase 2, 9.3 nM; at Carbonic anhydrase 9, 3340 nM.

With `N/C(=N\S(=O)(=O)c1ccccc1SCc1ccccc1)NNc1nc(Cl)nc(NCc2ccc(S(N)(=O)=O)cc2)n1`, the IC50 in the test on HeLa, in the test on MCF7 and with HCT-116 was > 100000 nM in each case. Besides, the Ki at Carbonic anhydrase 1 worked out at 294 nM; on Carbonic anhydrase 2 it was 38.8 nM; at Carbonic anhydrase 9, 46.9 nM.

Take `N/C(=N\S(=O)(=O)c1ccccc1SCc1cccc2ccccc12)NNc1nc(Cl)nc(Nc2cccc(S(N)(=O)=O)c2)n1`: the IC50 in the test on HeLa, in the test on MCF7 and in the test with HCT-116 was > 100000 nM each time. Further, the inhibition constant (Ki) on Carbonic anhydrase 1 came out at 3340 nM; at Carbonic anhydrase 2, 933 nM; on Carbonic anhydrase 9 it was 3400 nM.

As to `N/C(=N\S(=O)(=O)c1ccccc1SCc1ccc(C(F)(F)F)cc1)NNc1nc(Cl)nc(NCc2ccc(S(N)(=O)=O)cc2)n1`, the concentration for half-maximal inhibition (IC50) with HeLa, with MCF7 and in the test with HCT-116 was > 100000 nM each time. In addition, the Ki on Carbonic anhydrase 1 amounted to 514 nM; at Carbonic anhydrase 2 it was 89.5 nM; at Carbonic anhydrase 9, 47.1 nM.

On to `N/C(=N\S(=O)(=O)c1ccccc1SCc1ccc(C(F)(F)F)cc1)NNc1nc(Cl)nc(Nc2ccc(S(N)(=O)=O)cc2)n1`, for which the concentration for half-maximal inhibition (IC50) in the test with HeLa, with MCF7 and in the test with HCT-116 was > 100000 nM in each case. Also, the results for the Ki on Carbonic anhydrase 1, on Carbonic anhydrase 2 and on Carbonic anhydrase 9 were 386 nM, 22 nM and 42.9 nM, respectively.

For the compound `N/C(=N\S(=O)(=O)c1ccccc1SCc1ccccc1)NNc1nc(Cl)nc(Nc2cccc(S(N)(=O)=O)c2)n1`, the IC50 in the test on HeLa, in the test on MCF7 and in the test with HCT-116 was > 100000 nM throughout. Moreover, the inhibition constant (Ki) on Carbonic anhydrase 1 is 396 nM; on Carbonic anhydrase 2, 94.7 nM; on Carbonic anhydrase 9, 3970 nM.
